Like-named read-outs stand apart in the source and are kept apart here.
Columns and labels:
[1] = target: human CB1 receptor (hCB1) (Homo sapiens, UniProt P21554); experiment: cell-based; type: cell-based; conditions: for +/− HCB1: agonist or inverse agonist at hCB1
Outline: (§1)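 First, cells in IBMX-containing HEPES-buffered HBSS are raised to elevated cAMP with 2-8 μM NKH-477 for 30 min. Data are normalised to the forskolin and forskolin + 1 μM CP55,940 controls.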

[2] = target: T1, rat CB2 receptor (rCB2) (Rattus norvegicus, UniProt Q9QZN9); experiment: cell-based; type: cell-based; conditions: for +/− RCB2: agonist or inverse agonist at rCB2
T1 sequence (Q9QZN9 1-360): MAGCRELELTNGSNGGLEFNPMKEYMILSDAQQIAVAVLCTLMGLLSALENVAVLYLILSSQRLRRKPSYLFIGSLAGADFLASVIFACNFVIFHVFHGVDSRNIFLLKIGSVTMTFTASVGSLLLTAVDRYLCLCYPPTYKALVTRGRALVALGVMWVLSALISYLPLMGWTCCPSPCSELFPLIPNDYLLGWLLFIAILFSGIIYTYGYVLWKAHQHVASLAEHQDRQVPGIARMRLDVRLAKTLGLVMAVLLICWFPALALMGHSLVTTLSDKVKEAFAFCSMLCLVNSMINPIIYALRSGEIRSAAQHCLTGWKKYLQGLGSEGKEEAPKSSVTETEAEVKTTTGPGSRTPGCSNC
Outline: as §1

[3] = groups >100 nM-10 μM and >10 μM, cAMP, CHO-K1 hCB1, read-out: EC50 HCB1
[4] = groups >100 nM-10 μM and >10 μM, cAMP, CHO-K1 rCB2, read-out: EC50 RCB2

Sequence of human CB1 receptor (hCB1) (P21554 whole entry): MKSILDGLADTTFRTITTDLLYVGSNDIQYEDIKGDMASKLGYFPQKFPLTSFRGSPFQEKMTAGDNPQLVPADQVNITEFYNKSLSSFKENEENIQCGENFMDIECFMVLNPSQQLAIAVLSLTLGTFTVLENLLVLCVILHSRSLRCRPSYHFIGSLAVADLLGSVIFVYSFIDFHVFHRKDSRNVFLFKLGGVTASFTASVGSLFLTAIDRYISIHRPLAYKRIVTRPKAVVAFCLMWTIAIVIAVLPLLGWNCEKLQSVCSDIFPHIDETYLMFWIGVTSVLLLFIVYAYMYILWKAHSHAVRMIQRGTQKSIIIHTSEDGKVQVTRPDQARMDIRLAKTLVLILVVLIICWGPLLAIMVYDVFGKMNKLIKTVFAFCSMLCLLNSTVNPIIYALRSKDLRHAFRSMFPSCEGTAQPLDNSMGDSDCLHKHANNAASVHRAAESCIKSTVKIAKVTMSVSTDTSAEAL

| Structure (SMILES) | EC50 [1] | +/− RCB2 [2] | further results |
| --- | --- | --- | --- |
| COC(=O)[C@@H](NC(=O)c1nc(-c2ccccc2)n2c1CN(C)CC2)C(C)(C)C [Compound 86, (S)-methyl 3,3-dimethyl-2-(7-methyl-3-phenyl-5,6,7,8-tetrahydro-imidazo[1,5-a]pyrazine-1-carboxamido)butanoate] | > 10000 nM | + |  |
| CN1CCCn2c(-c3ccc(Cl)cc3F)nc(C(=O)N[C@H](C(N)=O)C(C)(C)C)c2C1 [Compound 573, (S)-N-(1-amino-3,3-dimethyl-1-oxobutan-2-yl)-3-(4-chloro-2-fluorophenyl)-8-methyl-6,7,8,9-tetrahydro-5H-imidazo[1,5-a][1,4]diazepine-1-carboxamide] |  | + | +/− HCB1 [1]: + |
| CNC(=O)[C@@H](NC(=O)c1nc(-c2cncnc2)n2c1CN(C)CC2)C(C)(C)C [Compound 239, (S)-N-(3,3-dimethyl-1-(methylamino)-1-oxobutan-2-yl)-7-methyl-3-(pyrimidin-5-yl)-5,6,7,8-tetrahydroimidazo[1,5-a]pyrazine-1-carboxamide] |  |  | EC50 [1, 3]: > 10000 nM; EC50 [2, 4]: > 10000 nM |
| O=C(NCC1CCOCC1)c1nc(-c2ccccc2)n2c1CNCC2 [Compound 46, 3-phenyl-N-((tetrahydro-2H-pyran-4-yl)methyl)-5,6,7,8-tetrahydroimidazo[1,5-a]pyrazine-1-carboxamide] |  | − | EC50 [1, 3]: > 10000 nM |
| CC(=O)N1CCn2c(-c3ccccc3)nc(C(=O)Nc3ccccc3)c2C1 [Compound 173, 7-acetyl-N,3-diphenyl-5,6,7,8-tetrahydroimidazo[1,5-a]pyrazine-1-carboxamide] |  |  | EC50 [1, 3]: > 10000 nM; EC50 [2, 4]: > 10000 nM |
| Cc1noc([C@@H](NC(=O)c2nc(-c3ccccc3)n3c2CN(C(=O)OC(C)(C)C)CCC3)C(C)(C)C)n1 [Compound 517, (S)-tert-butyl 1-(2,2-dimethyl-1-(3-methyl-1,2,4-oxadiazol-5-yl)propylcarbamoyl)-3-phenyl-6,7-dihydro-5H-imidazo[1,5-a][1,4]diazepine-8(9H)-carboxylate] |  | − | EC50 [1, 3]: > 10000 nM |
| CNC(=O)[C@@H](NC(=O)c1nc(-c2ccccc2)n2c1CN(C(=O)C(C)C)CC2)C(C)(C)C [Compound 191, (S)-N-(3,3-dimethyl-1-(methylamino)-1-oxobutan-2-yl)-7-isobutyryl-3-phenyl-5,6,7,8-tetrahydroimidazo[1,5-a]pyrazine-1-carboxamide] | > 10000 nM | − |  |
| C[C@H](NC(=O)c1nc(-c2ccccc2)n2c1CNCC2)c1ccccc1 [Compound 40, (S)-3-phenyl-N-(1-phenylethyl)-5,6,7,8-tetrahydroimidazo[1,5-a]pyrazine-1-carboxamide] | > 10000 nM | + |  |
| CNC(=O)[C@@H](NC(=O)c1nc(-c2ccc(C)cc2F)n2c1CN(C)CCC2)C(C)(C)C [Compound 340, (S)-N-(3,3-dimethyl-1-(methylamino)-1-oxobutan-2-yl)-3-(2-fluoro-4-methylphenyl)-8-methyl-6,7,8,9-tetrahydro-5H-imidazo[1,5-a][1,4]diazepine-1-carboxamide] | > 10000 nM | + |  |
| CNC(=O)[C@@H](NC(=O)c1nc(-c2ccc(OC)cc2C)n2c1CN(C)CCC2)C(C)(C)C [Compound 343, (S)-N-(3,3-dimethyl-1-(methylamino)-1-oxobutan-2-yl)-3-(4-methoxy-2-methylphenyl)-8-methyl-6,7,8,9-tetrahydro-5H-imidazo[1,5-a][1,4]diazepine-1-carboxamide] | > 10000 nM |  | EC50 [2]: > 10000 nM |
| CNC(=O)[C@@H](NC(=O)c1nc(-c2ccccc2)n2c1CN(C(=O)OC)CC2)C(C)(C)C [Compound 180, (S)-methyl 1-(3,3-dimethyl-1-(methylamino)-1-oxobutan-2-ylcarbamoyl)-3-phenyl-5,6-dihydroimidazo[1,5-a]pyrazine-7(8H)-carboxylate] | > 10000 nM | − |  |
| CNC(=O)[C@@H](NC(=O)c1nc(-c2ccccc2)n2c1CN(CC(C)(C)C)CC2)C(C)(C)C [Compound 55, (S)-N-(3,3-dimethyl-1-(methylamino)-1-oxobutan-2-yl)-7-neopentyl-3-phenyl-5,6,7,8-tetrahydroimidazo[1,5-a]pyrazine-1-carboxamide] | > 10000 nM | − |  |
| CNC(=O)[C@@H](NC(=O)c1nc(-c2cc(C(F)(F)F)ccc2F)n2c1CN(C)CC2)C(C)(C)C [Compound 245, (S)-N-(3,3-dimethyl-1-(methylamino)-1-oxobutan-2-yl)-3-(2-fluoro-5-(trifluoromethyl)phenyl)-7-methyl-5,6,7,8-tetrahydroimidazo[1,5-a]pyrazine-1-carboxamide] | > 10000 nM | − |  |
| CNC(=O)[C@@H](NC(=O)c1nc(C2=CCC(C(C)(C)C)CC2)n2c1CN(C)CC2)C(C)(C)C (stereo partly drawn) [Compound 271, 3-(4-tert-butylcyclohex-1-enyl)-N-((S)-3,3-dimethyl-1-(methylamino)-1-oxobutan-2-yl)-7-methyl-5,6,7,8-tetrahydroimidazo[1,5-a]pyrazine-1-carboxamide] |  | + | +/− HCB1 [1]: + |
| CC(C)(C)OC(=O)N1CCn2c(-c3ccc(Cl)cc3)nc(C(=O)N[C@H](CO)C(C)(C)C)c2C1 [Compound 34, (S)-tert-butyl 3-(4-chlorophenyl)-1-(1-hydroxy-3,3-dimethylbutan-2-ylcarbamoyl)-5,6-dihydroimidazo[1,5-a]pyrazine-7(8H)-carboxylate] | > 10000 nM | − |  |
| CNC(=O)[C@@H](NC(=O)c1nc(-c2ccccc2)n2c1CN(Cc1cccnc1)CC2)C(C)(C)C [Compound 63, (S)-N-(3,3-dimethyl-1-(methylamino)-1-oxobutan-2-yl)-3-phenyl-7-(pyridin-3-ylmethyl)-5,6,7,8-tetrahydroimidazo[1,5-a]pyrazine-1-carboxamide] | > 10000 nM |  | EC50 [2]: > 10000 nM |
| CC(C)CCNC(=O)c1nc(-c2ccc(Cl)cc2)n2c1CN(C(=O)c1ccccc1)CC2 [Compound 130, 7-benzoyl-3-(4-chlorophenyl)-N-isopentyl-5,6,7,8-tetrahydroimidazo[1,5-a]pyrazine-1-carboxamide] | > 10000 nM | − |  |
| CNC(=O)[C@@H](NC(=O)c1nc(-c2cccnc2)n2c1CNCC2)C(C)(C)C [Compound 14, (S)-N-(3,3-dimethyl-1-(methylamino)-1-oxobutan-2-yl)-3-(pyridin-3-yl)-5,6,7,8-tetrahydroimidazo[1,5-a]pyrazine-1-carboxamide] | > 10000 nM | + |  |
| CNC(=O)[C@@H](NC(=O)c1nc(-c2cccc(C)c2)n2c1CNCC2)C(C)(C)C [Compound 8, (S)-N-(3,3-dimethyl-1-(methylamino)-1-oxobutan-2-yl)-3-m-tolyl-5,6,7,8-tetrahydroimidazo[1,5-a]pyrazine-1-carboxamide] | > 10000 nM | − |  |
| CNC(=O)[C@H](C)NC(=O)c1nc(-c2ccccc2)n2c1CNCC2 [Compound 28, (S)-N-(1-(methylamino)-1-oxopropan-2-yl)-3-phenyl-5,6,7,8-tetrahydroimidazo[1,5-a]pyrazine-1-carboxamide] |  |  | EC50 [1, 3]: > 10000 nM; EC50 [2, 4]: > 10000 nM |
| CC(C)(C)[C@@H](CO)NC(=O)c1nc(-c2ccc(Cl)cc2)n2c1CN(CCO)CC2 [Compound 162, (S)-3-(4-chlorophenyl)-N-(1-hydroxy-3,3-dimethylbutan-2-yl)-7-(2-hydroxyethyl)-5,6,7,8-tetrahydroimidazo[1,5-a]pyrazine-1-carboxamide] | > 10000 nM | − |  |
| CNC(=O)c1cc(-c2nc(C(=O)N[C@H](C(=O)NC)C(C)(C)C)c3n2CCCN(C)C3)ccc1F [Compound 406, (S)-N-(3,3-dimethyl-1-(methylamino)-1-oxobutan-2-yl)-3-(4-fluoro-3-(methylcarbamoyl)phenyl)-8-methyl-6,7,8,9-tetrahydro-5H-imidazo[1,5-a][1,4]diazepine-1-carboxamide] | > 10000 nM | + |  |
| CN1CCCn2c(-c3ccc(F)c(F)c3)nc(C(=O)N[C@H](C(N)=O)C(C)(C)C)c2C1 [Compound 581, (S)-N-(1-amino-3,3-dimethyl-1-oxobutan-2-yl)-3-(3,4-difluorophenyl)-8-methyl-6,7,8,9-tetrahydro-5H-imidazo[1,5-a][1,4]diazepine-1-carboxamide] |  | + | +/− HCB1 [1]: + |
| CNC(=O)[C@@H](NC(=O)c1nc(-c2ccccc2)n2c1CN(Cc1nccs1)CC2)C(C)(C)C [Compound 72, (S)-N-(3,3-dimethyl-1-(methylamino)-1-oxobutan-2-yl)-3-phenyl-7-(thiazol-2-ylmethyl)-5,6,7,8-tetrahydroimidazo[1,5-a]pyrazine-1-carboxamide] | > 10000 nM |  | EC50 [2]: > 10000 nM |
| CNC(=O)[C@@H](NC(=O)c1nc(/C=C/c2ccsc2)n2c1CN(C)CCC2)C(C)(C)C [Compound 446] | > 10000 nM | + |  |
| CNC(=O)[C@@H](NC(=O)c1nc(-c2cc(Cl)c(F)cc2F)n2c1CN(C)CCC2)C1CCCCC1 [Compound 542, (S)-3-(5-chloro-2,4-difluorophenyl)-N-(1-cyclohexyl-2-(methylamino)-2-oxoethyl)-8-mehtyl-6,7,8,9-tetrahydro-5H-imidazo[1,5-a][1,4]diazepine-1-carboxamide] |  | + | +/− HCB1 [1]: + |

Reference: patent publication US7517874B2 (priority 2007, dated 2009)
